Source: patent US20250221950A1, “GABA-CONTAINING COMPOSITION” (priority 2021, published 2025)
Entries after “also recorded” stand apart in the source; their conditions may differ. Ends that are not written are not given here.

Experiments:
obese patients = details: Bergmann et al. 2019, cited from earlier work
[1] = test system: afferent nerves in the hepatic branch of the vagus nerve; details: administration into the hepatic portal vein; J Auton Nerv Syst. 1996; cited from earlier work
[2] = test system: sensory nerve disorder model mice by subcutaneous administration of capsaicin; test: Food intake after intragastric GABA in capsaicin sensory nerve disorder model mice (FIG. 1B); type: in vivo; details: GABA 200 mg/kg intragastric, capsaicin treatment
Procedure: (§1) In order to examine the involvement of the vagus nerve which is a visceral sensory nerve, the food intake reducing effect by intragastric administration of GABA was examined using sensory nerve disorder model mice by subcutaneous administration of capsaicin or subdiaphragmatic vagotomized mice. The sensory nerve disorder model mice by subcutaneous administration of capsaicin were prepared as follows. 50 mg/kg of capsaicin (5 ml/kg, solution composition: 10% ethanol, 10% Tween 80, 80% physiological saline) was subcutaneously administered to C57BL/6J male mice under tribromoethanol (200 mg/kg, intraperitoneal administration (ip)) anesthesia, and after 2 days, 50 mg/kg of capsaicin was subcutaneously administered under similar anesthesia. Further, after 2 days, 10 mg/kg of capsaicin was intraperitoneally administered under no anesthesia. After a recovery period of 5 to 7 days, an experiment of food intake was performed. In sham operation and subdiaphragmatic vagotomy, surgery was performed on C57BL/6J male mice under tribromoethanol (200 mg/kg, ip) anesthesia. […] All the mice were fasted overnight (16 hours) on the day before the experiment of food intake, then intragastrically administered a single dose of physiological saline or GABA (200 mg/kg) from 9:45, and fed at 10:00, and the food intake by free-feeding was measured over time. […]

GLP-1 [3] = test: Fructose-induced GLP-1 secretion, portal plasma ELISA (Example 9, FIG. 13); type: in vivo, mice
[4] = test system: subdiaphragmatic vagotomized mice; test: Food intake after intragastric GABA in subdiaphragmatic vagotomized mice (FIG. 1B); type: in vivo; details: GABA 200 mg/kg intragastric, afferent vagotomy
Procedure: as §1

[5] = test system: Healthy C57BL/6J male mice; test: Food intake after GABA, enteral nutrient or both 30 minutes before feeding, healthy mice (Example 2, FIG. 2); type: in vivo
Procedure: Saline (40 ml/kg, po), GABA (200 mg/kg, po), EnsureH (40 ml/kg, po, 1.5 kcal/g) which is an enteral nutrient manufactured by Abbott Japan LLC, or EnsureH+GABA (GABA 200 mg/kg in Ensure, 40 ml/kg, po) were administered from 9:15. The mice were fed 30 minutes after administration, and freely fed. […] At 0.5 h or after, the cumulative food intake (kcal) of the forcibly administered solution and the feed taken was shown (FIG. 2).

vagal afferent nerves = test: pERK1/2 immunostaining of nodose ganglion, nucleus tractus solitarius and area postrema (Example 4, FIG. 4, 5); type: in vivo, mice; details: 30 minutes
Procedure: C57BL/6J male mice were acclimated to the environment and experimental work by preliminary rearing and handling for 1 week or more in individual cages. […] They were post-fixed, and a frozen section specimen was prepared. Using this frozen section specimen, immunostaining of phosphorylated ERK1/2 (pERK1/2), which is a neural activation marker, was performed, and each organ section was photographed with a fluorescence microscope and analyzed.

human subjects = test: Human test: VAS satiety and appetite, and calorie intake of a lunch box after GABA intake (Example 6); type: in vivo; details: GABA 100 mg before lunch box, versus placebo
Procedure: It was examined whether GABA administration also affects the food intake in humans. In 13 human subjects (25 to 43 years old, 5 males and 8 females), changes in the food intake in the presence or absence of GABA administration were confirmed in the following test outline. Specifically, each subject was fasted from 21:00 on the day before the test, and subjective evaluation (satiety, hunger, appetite) was performed by the VAS questionnaire at 12:00 on the test day. Thereafter, a sample (placebo group: dextrin, GABA group: GABA 100 mg) was taken in together with 50 mL of water, and immediately after that, diet (lunch box) was taken. Immediately after diet, at 30 minutes, 60 minutes, and 120 minutes after diet, subjective evaluation (satiety, hunger, appetite) was performed again by the VAS questionnaire, and the remaining amount of a lunch box was photographed to calculate intake kcal.

GIP [6] = test: Glucose-induced GIP secretion, portal plasma ELISA (Example 7, FIG. 10); type: in vivo, mice; details: GABA (2, 20, 200 mg/kg) with glucose 1 g/kg oral, 15 minutes
GLP-1 [7] = test: GLP-1 secretion after glucose with or without GABA, portal plasma ELISA (Example 7, FIG. 10); type: in vivo, mice; details: addition of GABA (2, 20, 200 mg/kg) to glucose 1 g/kg oral, 15 minutes
GLP-1 [8] = test: Blood total GLP-1 concentration 30 minutes after intragastric administration (Example 5, FIG. 6); type: in vivo, mice
Procedure: (§2) Healthy C57BL/6J male mice were fasted for 16 hours from 18:00 the day before the experiment. At 10:00, various solutions shown in the figure were intragastrically administered (40 ml/kg). Thirty minutes after administration, blood was collected from the portal vein under isoflurane anesthesia. An anticoagulant (heparin (final concentration 50 IU/ml)) and a peptide degradation inhibitor (aprotinin (final concentration 500 KIU/ml) and vildagliptin (final concentration 10 μM)) were added in advance to the sampling syringe. The collected blood was cooled and centrifuged and stored at −80° C. until the obtained plasma was analyzed. The total GIP concentration (A) and the total GLP-1 concentration (B) in the blood were analyzed using ELISA kits (EZGLP1T-36K and EZRMGIP-55K) manufactured by Millipore Corporation.

[9] = test system: Healthy C57BL/6J male mice; test: Food intake after intragastric GABA just before feeding in fasted healthy mice (Example 1, FIG. 1A); type: in vivo; details: GABA solution 20 mg/kg or 200 mg/kg po just before feeding, compared with physiological saline
Procedure: As experimental animals, C57BL/6J male mice were used. The mice were acclimated to the environment by preliminary rearing for 1 week or more in individual cages in the free-eating and drinking environment at a temperature of 23±2° C., a humidity of 55±10%, a 12 hour light-dark cycle (light period: 7:30 to 19:30). The animal experiment was conducted with approval in accordance with the guidelines of the Committee for Animal Research of Kyoto Prefectural University. […] In each administration, the mice were intragastrically administered (po) a single dose of physiological saline as a control group and GABA (2 mg/kg, 20 mg/kg, 200 mg/kg) as a test group at a dose of 10 ml/kg using a sonde (stainless steel feeding needle). […] The amount of the feed taken is expressed as the cumulative food intake (kcal) or the food intake at each time (kcal) (FIG. 1A). The cumulative food intake (kcal) also includes energy of administered GABA (3.95 kcal/g).

GIP [10] = test: Blood total GIP concentration 30 minutes after intragastric administration (Example 5, FIG. 6); type: in vivo, mice
Procedure: as §2

[11] = test system: Healthy C57BL/6J male mice; test: Food intake after sucrose with or without GABA (Example 10, FIG. 14); type: in vivo
Procedure: Thereafter, the mice were fed at 10:00 on the test day, and the food intake by free-feeding was measured over time.

GIP [12] = test: Isomerized sugar-induced GIP secretion, portal plasma ELISA (Example 9, FIG. 13); details: GABA 60 mg/kg po with glucose+fructose 1 g/kg each
sham-operated mice = test: Food intake after intragastric GABA in sham-operated mice (FIG. 1B); type: in vivo; details: GABA 200 mg/kg intragastric
Procedure: as §1

C57BL/6J male mice = test: Conditioned taste aversion test (saccharin preference, Example 3, FIG. 3); type: in vivo; details: lithium chloride 3 mmol/kg intraperitoneal
Procedure: C57BL/6J male mice reared in individual cages were given two bottles of water only for 2 hours from 10:00 to 12:00 for 5 days, whereby the mice were acclimated to the water restriction schedule. On day 6, a 0.15% saccharin solution was presented for 30 minutes, and thereafter, lithium chloride (3 mmol/kg) was intraperitoneally administered, whereby the mice were made to acquire an aversion to the taste of the saccharin solution (conditioning). In the same manner, a control group to which physiological saline (10 mL/kg) was intragastrically administered and a test group to which GABA (200 mg/kg) was intragastrically administered were prepared. On day 7 serving as a rest day, the above-described water restriction schedule was performed. On day 8 serving as a test day, two bottles of a 0.15% saccharin solution and water were simultaneously presented for 30 minutes, and the preference of the saccharin solution (saccharin intake/total intake of two bottles×100, %) was determined.

[13] = test system: Healthy C57BL/6J male mice; test: Food intake after glucose, fructose, isomerized sugar with or without GABA (Example 8, FIG. 11, 12); type: in vivo; details: fructose 1 g/kg po alone, compared with control group (saline)
Procedure: Thereafter, the mice were fed at 10:00 on the test day, and the food intake by free-feeding was measured over time. […] The effect of GABA on the inhibitory action on fructose-induced satiety by glucose was examined. […] Thereafter, the mice were fed at 10:00 on the test day, and the food intake by free-feeding was measured over time.

[14] = GABA addition to enteral nutrients, 30 minutes after administration
[15] = GABA alone, intragastric 40 ml/kg, 30 minutes after administration
[16] = addition of GABA to the liquid food (EnsureH), 30 minutes

glucagon-like peptide-1 (HAEGTFTSDVSSYLEGQAAKEFIAWLVKGR; ends and bridges not checked; UniProt P01275 98-127, looked up) [GLP-1, incretin hormone produced in endocrine L cells]
energy intake (obese patients; GLP-1 intravenously to obese patients): reduced | neural activity of afferent nerves in the hepatic branch of the vagus nerve [1]: significant increase

Glucose-dependent insulinotropic polypeptide [GIP]
effect of GLP-1 on energy intake (obese patients; GIP administered simultaneously with GLP-1): attenuated | neural activity of afferent nerves in the hepatic branch of the vagus nerve [1]: does not result in any change

NCCCC(=O)O [GABA, γ-Aminobutyric acid]
ability to induce the transient satiety or to suppress binge eating on a fasting condition (food intake) [2]: impaired | fructose-induced GLP-1 secretion (GLP-1 [3]; GABA 60 mg/kg po): further enhances | GLP-1 secretion (GLP-1 [3]; further addition of GABA 60 mg/kg po to glucose+fructose 1 g/kg each): enhanced | ability to induce the transient satiety or to suppress binge eating on a fasting condition (food intake) [4]: impaired | eating behavior after the start of eating ([5]; GABA 200 mg/kg po alone 30 minutes before eating, compared with physiological saline): not different | satiety via vagal afferent nerves ([5]; GABA addition to enteral nutrients, 30 minutes before feeding): enhances | food intake reducing effect ([5]; administration of GABA 30 minutes before diet): greatly reduced | afferent vagal activation by nutrient (pERK1/2) (vagal afferent nerves; GABA 200 mg/kg in EnsureH 40 ml/kg po, compared with EnsureH alone): significantly enhances | afferent vagal activity (neuron activities of vagal afferent nerves, nucleus tractus solitarius, area postrema; pERK1/2) (vagal afferent nerves; GABA alone 200 mg/kg po, compared with physiological saline): does not affect | feeling of satiety (VAS) (human subjects; immediately after diet, 30 minutes and 60 minutes after diet): significantly increased | appetite after diet (VAS) (human subjects): significantly reduced; also recorded: suppressed | calorie intake (human subjects): significantly low value | feeling of satiety, area under the curve (AUC) (human subjects): significant increase; also recorded: significantly increased | glucose-induced GIP secretion (GIP [6]): suppresses | GLP-1 secretion (GLP-1 [7]): does not significantly enhance | GLP-1 secretion (blood GLP-1 increase by nutrient) (GLP-1 [8]; [14]): increase; also recorded: promotes | blood GLP-1 concentration (GLP-1 [8]; [15]): no change | GLP-1 concentration relative to liquid food alone (GLP-1 [8]; [16]): approximately double | fasting food intake within 1 hour from the start of diet after fasting ([9]; 16 h fasted): significantly reduced | food intake within 2 hours from the start of diet after fasting ([9]; 16 h fasted): reduces | food intake after 2 hours from the start of eating [9]: not always changed | GIP secretion (blood GIP increase by nutrient) (GIP [10]; [14]): suppress; also recorded: suppresses | blood GIP concentration (GIP [10]; [15]): no change | GIP concentration relative to liquid food alone (GIP [10]; [16]): about ⅓ | feeling of satiety ([11]; GABA 200 mg/kg po taken together with sucrose 2 g/kg po): significantly induces | isomerized sugar-induced GIP secretion (GIP [12]): suppresses | ability to induce the transient satiety or to suppress binge eating on a fasting condition (food intake) (sham-operated mice): similarly observed

[Cl-].[Li+] [lithium chloride]
aversion (C57BL/6J male mice): induces aversion | preference of saccharin (C57BL/6J male mice; conditioning day 6, test day 8): reduced

O=C(CO)[C@@H](O)[C@H](O)[C@H](O)CO [fructose, reference compound]
GLP-1 secretion (GLP-1 [3]; fructose 1 g/kg po): enhances | food intake [13]: suppressed

OC[C@H]1O[C@@](CO)(O[C@H]2O[C@H](CO)[C@@H](O)[C@H](O)[C@H]2O)[C@@H](O)[C@@H]1O [sucrose, reference compound]
satiety inducing action (intake inhibitory action) ([11]; sucrose 2 g/kg po alone): not observed
